The experiment addresses T1, RoxP_1 (8His-TEV-RoxP_1, RoxP_1-tagless) (Cutibacterium acnes, UniProt Q6A6F6).
T1 construct: gene PPA1939; mature secreted protein; E. coli host, PelB signal peptide
Nature of the experiment: native gel shift (Coomassie, TCE tryptophan protection). It is filed as binding. As to conditions: HSB pH 7.4; weaker than hemin.

Data on one compound can be found in publication PMC13244789, “Cutibacterium Adaptation to Life on Humans Provides a Potential C acnes Infection Biomarker” (The Journal of investigative dermatology, 2025).

SMILES strings stand for the structures.

T1 sequence (Q6A6F6 entry or part of it): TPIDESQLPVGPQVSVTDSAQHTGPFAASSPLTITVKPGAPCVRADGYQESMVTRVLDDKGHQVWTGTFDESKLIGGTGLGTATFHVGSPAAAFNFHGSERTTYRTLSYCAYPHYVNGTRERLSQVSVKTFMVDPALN

Regarding `C=CC1=C(C)c2cc3[nH]c(cc4nc(cc5[nH]c(cc1n2)c(C)c5CCC(=O)O)C(CCC(=O)O)=C4C)c(C)c3C=C` [protoporphyrin IX], the “native gel shift (Coomassie, TCE tryptophan protection)” value was “porphyrins revealed weaker binding to PPIX but no detectable binding to coproporphyrin III”.
